From patent US4366143A, “Assay for the free portion of substances in biological fluids” (Amersham International Public Limited Company, priority 1979, dated 1982)
Like-named read-outs stand apart in the source and are kept apart here.

Columns and labels:
[1] = tested on: serum albumin; conditions: U.S. Pat. No. 4,069,305; cited from earlier work
[2] = molecular target: T1, transcortin (Homo sapiens, UniProt P08185); assay: Binding of cortisol tracers to serum proteins / transcortin with and without ANS (Example 4); conditions: for % Tracer Bound to Serum Proteins (Corrected for Non-Specific Binding): charcoal extracted human serum
T1 construct: charcoal extracted human serum; from tissue; host or cells: human serum, charcoal extracted (unpurified)
T1 sequence (P08185 23-405): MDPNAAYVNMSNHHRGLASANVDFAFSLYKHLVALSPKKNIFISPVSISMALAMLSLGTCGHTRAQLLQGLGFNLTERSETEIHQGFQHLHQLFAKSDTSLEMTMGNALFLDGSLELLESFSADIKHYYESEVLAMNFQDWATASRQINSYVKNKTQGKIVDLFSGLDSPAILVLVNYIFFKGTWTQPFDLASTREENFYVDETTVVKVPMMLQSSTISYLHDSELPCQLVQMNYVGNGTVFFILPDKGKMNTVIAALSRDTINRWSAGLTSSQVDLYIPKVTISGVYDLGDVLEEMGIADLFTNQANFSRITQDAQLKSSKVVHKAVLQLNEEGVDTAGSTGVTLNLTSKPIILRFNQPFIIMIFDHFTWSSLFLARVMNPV
Procedure: The protocol was as follows:
B. 200 μl buffer (containing either 0 or 600 μg of 8-anilinonaphthalene sulphonic acid (ANS) as a cortisol binding site blocking agent).
A mixture of A and B was incubated at 37° C. for one hour. […] The reaction tubes were mixed for one hour at room temperature. A 0.5 ml aliquot of the supernatant was then removed for counting.

[3] = tested on: rabbit anti-cortisol serum
Procedure: This experiment is designed to test the binding of cortisol-3-carboxymethyloxime-histamine-I^125 tracer with an antiserum raised to a cortisol-3-carboxymethyloxime-thyroglobulin conjugate. The protocol was as follows:
50 μl of serum was mixed with 200 μl of cortisol-3-carboxymethyloxime-histamine-I^125 tracer solution. The specific activity of the tracer was 3.9 curies per milligram. The tracer concentration was 125 picomolar. The buffer contained 28 g/l Na2 HPO4.12H2 O, 4.6 g/l citric acid monohydrate, 9 g/l NaCl, 3 g/l E.D.T.A. disodium salt, 0.5 g/l NaN3, 1 g/l gelatin and 1 g/l of 8-anilinonaphthalene sulphonic acid (the latter to inhibit binding of cortisol to transcortin and albumin).
To the mixture of tracer and serum, 200 μl of a suspension of polystyrene latex particles (0.9 micron diameter) coated with the rabbit anti-cortisol serum was added. The buffer was 28 g/l Na2 HPO4.12H2 O, 4.6 g/l citric acid monohydrate, 0.5 g/l NaN3 and 2 g/l bovine serum albumin. The effective antiserum dilution in the assay tube was 1/20000.
The resulting mixture was vortexed and incubated at 37° C. for 1 hour. The antibody coated particles were centrifuged down at 1500 g for 15 minutes and the liquid phase decanted off.

[4] = tested on: antiserum raised to a 21-hemisuccinate-cortisol conjugate to bovine serum albumin; conditions: heterologous tracer-immunogen pair

Compound | binding to serum albumin relative to cortisol (in words) [1] | binding to transcortin (in words) [2] | % Tracer Bound to Serum Proteins (Corrected for Non-Specific Binding) ([2]; ANS 0 μg/tube) | % Tracer Bound to Serum Proteins (Corrected for Non-Specific Binding) ([2]; ANS 600 μg/tube) | displacement from transcortin by ANS blocking agent (in words) ([2]; high concentrations of ANS) | % Radioactivity in the antibody Coated Particles ([3]; Total Plasma Cortisol 0 μg/dl) | % Radioactivity in the antibody Coated Particles ([3]; Total Plasma Cortisol 1 μg/dl) | % Radioactivity in the antibody Coated Particles ([3]; Total Plasma Cortisol 4 μg/dl) | % Radioactivity in the antibody Coated Particles ([3]; Total Plasma Cortisol 10 μg/dl) | % Radioactivity in the antibody Coated Particles ([3]; Total Plasma Cortisol 28 μg/dl) | % Radioactivity in the antibody Coated Particles ([3]; Total Plasma Cortisol 60 μg/dl) | affinity of antiserum for tracer (in words) [4]
C[C@]12CCC(=NOCC(=O)NCCc3c[nH]cn3)C=C1CC[C@@H]1[C@@H]2[C@@H](O)C[C@@]2(C)[C@H]1CC[C@]2(O)C(=O)CO | binds much less strongly to serum albumin than cortisol itself | – | – | – | – | – | – | – | – | – | – | –
cortisol-3-carboxymethyloxime-histamine I^125 | – | binds very weakly to transcortin | 7% | 5% | not significantly displaced by the ANS blocking agent | 65.4% | 56.6% | 43.0% | 30.6% | 19.2% | 12.2% | sufficient affinity
